Consider eight molecules from patent publication US11713338B2, “Cyclic peptides multimers targeting α-4-β-7 integrin” (priority 2016, dated 2023).

Type in all cases: cell-based
Test [1] deals with T1, integrin α4β7 on α4β7+ memory T helper cells (Homo sapiens, UniProt P13612+P26010).
T1 construct: endogenous in cells
T1 sequence (P13612 34-1032): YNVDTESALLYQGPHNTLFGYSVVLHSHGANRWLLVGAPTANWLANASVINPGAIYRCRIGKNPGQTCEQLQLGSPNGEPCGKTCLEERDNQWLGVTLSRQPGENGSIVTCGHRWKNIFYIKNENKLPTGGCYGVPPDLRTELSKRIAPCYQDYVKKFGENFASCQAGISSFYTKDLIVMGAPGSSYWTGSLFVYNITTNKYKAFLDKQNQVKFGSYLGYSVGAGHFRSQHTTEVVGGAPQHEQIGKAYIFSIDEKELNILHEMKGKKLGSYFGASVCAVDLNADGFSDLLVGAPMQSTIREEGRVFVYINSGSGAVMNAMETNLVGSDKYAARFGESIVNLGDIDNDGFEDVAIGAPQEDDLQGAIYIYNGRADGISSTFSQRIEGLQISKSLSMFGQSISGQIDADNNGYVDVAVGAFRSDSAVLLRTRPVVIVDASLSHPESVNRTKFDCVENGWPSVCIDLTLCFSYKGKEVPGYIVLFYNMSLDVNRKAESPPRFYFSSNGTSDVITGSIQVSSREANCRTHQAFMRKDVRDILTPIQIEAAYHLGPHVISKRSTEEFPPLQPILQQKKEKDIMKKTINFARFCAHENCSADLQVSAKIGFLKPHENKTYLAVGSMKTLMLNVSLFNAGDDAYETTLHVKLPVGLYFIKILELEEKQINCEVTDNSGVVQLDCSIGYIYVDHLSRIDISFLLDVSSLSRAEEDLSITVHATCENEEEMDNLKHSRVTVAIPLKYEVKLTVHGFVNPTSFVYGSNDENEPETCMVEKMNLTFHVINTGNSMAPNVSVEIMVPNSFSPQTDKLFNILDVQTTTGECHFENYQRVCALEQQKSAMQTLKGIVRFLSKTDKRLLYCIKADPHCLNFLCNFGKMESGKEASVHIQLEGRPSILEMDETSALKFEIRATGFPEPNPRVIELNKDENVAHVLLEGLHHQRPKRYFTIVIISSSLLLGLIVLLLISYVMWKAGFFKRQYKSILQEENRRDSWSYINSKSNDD
T1 sequence (P26010 20-798): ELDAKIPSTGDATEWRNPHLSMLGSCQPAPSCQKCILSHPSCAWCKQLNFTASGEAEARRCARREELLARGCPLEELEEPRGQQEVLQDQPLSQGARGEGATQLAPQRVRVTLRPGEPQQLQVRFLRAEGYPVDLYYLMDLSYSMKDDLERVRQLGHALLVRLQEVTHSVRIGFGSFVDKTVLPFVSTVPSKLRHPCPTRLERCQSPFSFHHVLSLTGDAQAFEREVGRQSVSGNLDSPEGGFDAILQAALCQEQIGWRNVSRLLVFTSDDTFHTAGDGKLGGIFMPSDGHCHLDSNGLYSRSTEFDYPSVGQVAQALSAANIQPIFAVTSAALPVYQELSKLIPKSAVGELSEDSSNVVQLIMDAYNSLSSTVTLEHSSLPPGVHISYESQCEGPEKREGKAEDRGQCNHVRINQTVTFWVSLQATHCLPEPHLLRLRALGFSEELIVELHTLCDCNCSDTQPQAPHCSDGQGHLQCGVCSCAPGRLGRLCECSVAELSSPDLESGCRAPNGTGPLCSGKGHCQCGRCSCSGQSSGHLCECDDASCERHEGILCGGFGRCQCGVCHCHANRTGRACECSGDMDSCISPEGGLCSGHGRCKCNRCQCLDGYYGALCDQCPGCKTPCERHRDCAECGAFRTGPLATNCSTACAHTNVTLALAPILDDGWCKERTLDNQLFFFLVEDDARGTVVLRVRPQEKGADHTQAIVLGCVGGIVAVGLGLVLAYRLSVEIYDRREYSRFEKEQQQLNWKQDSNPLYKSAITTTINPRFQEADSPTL
Put plainly: MAdCAM-1 competition / receptor occupancy assay in human whole blood, α4β7-positive Th memory cells. Particulars: human whole blood; for pIC50: inhibition of MAdCAM-1 binding to α4β7-positive Th memory cells, FACS, read-out: MADCAM FACS α4β7 Th mem. As to the method:
Analyte Competition Assay in CD4+ Integrin α4+β7-Lo Memory T Cells
Receptor occupancy in primary cells was determined by measuring the amount of biotinylated human recombinant MAdCAM-1-FC or human recombinant VCAM-1-Fc bound to selected cell populations using flow cytometry. Human recombinant MAdCAM-1-FC or human recombinant VCAM-1-FC (R&D systems) were biotinylated using commercially available reagents and protocol (Pierce).
Whole blood was collected from human donors in sodium heparin tubes. […] Cells were washed twice with 1 mL of 1X DPBS calcium magnesium free (CMF) (ThermoFisher Scientific) and resuspended in 100 microL of DPBS CMF.
Biotinylated human recombinant MAdCAM-1-Fc or VCAM-1-Fc were added at saturating concentration and incubated at room temperature for 1 hour. […] Cells were washed with 1 mL stain buffer-FBS (BD Biosciences) and resuspended in 100 μl stain Buffer-FBS (BD Biosciences) containing 4 mM MnCl2. […] Cells were then washed with 1 mL stain buffer-FBS and resuspended in […] stain buffer-FBS. The cells were incubated in the dark for 30 minutes at room temperature with 1 ul Streptavidin APC (Biolegend 0.2 mg/ml) and a panel of antibodies for the detection of memory T helper a4b7-positive cells subset. And amount of 5.0 ul each of the following antibodies were used; CD45 FITC (BioLegend 200 ug/ml), CD29 APC Cy7 (BioLegend 100 ug/ml), Integrin beta7 PE, (BioLegend concentration 50 μg/mL), CD49d V421 (BioLegend 50 μg/mL), CD3 V510 (BioLegend 30 μg/mL), CD4 PECy7 (BioLegend 100 μg/mL), CD45RO PerCP, BioLegend 200 μg/mL). The cells were then washed with stain-buffer-FBS and resuspended in 150 microL stain buffer-FBS for acquisition on the flow cytometer (BD FACSCanto™ flow cytometer and BDFACSDiva™ software). FACS data was acquire by electronic gating on the basis of forward versus side scatter, The cytometer was set to collect 20,000 events in each tube. Cell population were determined using the following markers, CD45+, CD3+, CD4+, CD45RO+, CD49d+, integrin b7, biotinylated ligands.
Compound receptor occupancy was defined as the decrease in the number of integrin β7+ or integrin β7-lo cells binding biotinylated rhMAdCAM-1 or rhVCAM-1, respectively.
Receptor occupancy was calculated with the following equation: 100−((% ligand-positive cells with compound/% ligand-positive cells DMSO)*100) In Vivo T Lymphocyte Trafficking Analysis in Mouse Model of Colitis

Test [2] deals with T2, integrin α4β7 (RPMI8866 human cells adhering to MAdCAM-1) (Homo sapiens, UniProt P13612+P26010).
T2 construct: RMP18866 cells, which express integrin α4β7; host or cells: RPMI8866
T2 sequence (P13612 34-1032): T1 sequence (P13612 34-1032)
T2 sequence (P26010 20-798): T1 sequence (P26010 20-798)
Put plainly: Integrin α4β7-MAdCAM cell adhesion assay (RPMI8866 cells). Particulars: RPMI8866 cells adhering to MAdCAM; read-out: RPMI8866 Adhesion α4β7/MAdCAM IC50. The gist of the method:
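RPMI8866 cells were loaded with […] calcein in PBS for 30 min at 37° C. After plate washes with PBS, fluorescence of adherent cells was read, and no-cell control wells were subtracted from each test well to build the dose response.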

The target of test [3] is T3, integrin α4β1 (RAMOS human cells adhering to VCAM-1) (Homo sapiens, UniProt P05556+P13612).
T3 construct: Ramos cells, which express integrin α4β1; host or cells: RAMOS
Put plainly: Integrin α4β1-VCAM cell adhesion assay (RAMOS cells). Particulars: for pIC50: Ramos cells adhering to VCAM, read-out: Ramos Adhesion α4β1/VCAM IC50. As to the method: Integrin α4β1-VCAM Cell Adhesion Assay
The plate was incubated overnight at 4° C. and washed twice with 150 μl per well wash buffer (0.05% Tween 20 in PBS), blocked with 250 μl per well blocking buffer (1% non-fat dry milk in PBS), for 1 hour at room temperature. During blocking step, RAMOS cells were resuspended at 10 million cells/ml in PBS containing […] and incubated at 37° C. for 30 min in a 50 ml tube. […] The plate was emptied by inverting and blotting on paper towels and washed manually twice with PBS. […] To calculate the dose response, the fluorescence value of control wells not containing cells was subtracted from each test well.

pIC50: −log10 of the molar value.

T3 sequence (P05556 21-798, one chain of several): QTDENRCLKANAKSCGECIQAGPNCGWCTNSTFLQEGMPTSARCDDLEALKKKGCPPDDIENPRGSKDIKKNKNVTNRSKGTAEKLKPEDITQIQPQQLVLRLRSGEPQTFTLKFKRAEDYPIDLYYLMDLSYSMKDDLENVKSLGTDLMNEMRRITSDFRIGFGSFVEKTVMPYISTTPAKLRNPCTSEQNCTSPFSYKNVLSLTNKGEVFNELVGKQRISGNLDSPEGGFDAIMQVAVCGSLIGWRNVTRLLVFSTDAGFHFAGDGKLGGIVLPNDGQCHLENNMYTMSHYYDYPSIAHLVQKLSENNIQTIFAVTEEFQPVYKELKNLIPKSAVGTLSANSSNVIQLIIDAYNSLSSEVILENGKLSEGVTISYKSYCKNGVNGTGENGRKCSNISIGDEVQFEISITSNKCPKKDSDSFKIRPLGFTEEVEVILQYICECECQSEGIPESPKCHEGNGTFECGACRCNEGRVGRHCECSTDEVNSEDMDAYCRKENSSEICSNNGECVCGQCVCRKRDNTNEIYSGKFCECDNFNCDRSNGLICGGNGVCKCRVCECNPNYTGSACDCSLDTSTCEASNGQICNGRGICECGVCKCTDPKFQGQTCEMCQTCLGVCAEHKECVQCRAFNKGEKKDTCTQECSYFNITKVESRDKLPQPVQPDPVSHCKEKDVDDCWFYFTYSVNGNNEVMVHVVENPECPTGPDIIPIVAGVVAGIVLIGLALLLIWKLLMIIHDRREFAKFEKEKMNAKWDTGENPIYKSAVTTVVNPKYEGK

In the case of `CC(C)C[C@@H]1NC(=O)c2ccc(-c3ccc(N4CCNCC4)cc3)c(c2)CNC(=O)[C@@H]2CCCN2[C@H](C(=O)NC(C)(C)C)[C@H](C)NC(=O)[C@H]([C@@H](C)O)NC(=O)[C@H](CC(=O)O)NC1=O` [Compound 340], the “receptor occupancy at low concentrations” value in test [1] (low concentrations) is 50%.
For the molecule `CC(C)C[C@@H]1NC(=O)c2ccc(-c3ccc(N4CCN(C(=O)Cc5cccc(CC(=O)N6CCN(c7ccc(-c8ccc9cc8CNC(=O)[C@@H]8CCCN8[C@H](C(=O)NC(C)(C)C)[C@H](C)NC(=O)[C@H]([C@@H](C)O)NC(=O)[C@H](CC(=O)O)NC(=O)[C@H](CC(C)C)NC9=O)cc7)CC6)c5)CC4)cc3)c(c2)CNC(=O)[C@@H]2CCCN2[C@H](C(=O)NC(C)(C)C)[C@H](C)NC(=O)[C@H]([C@@H](C)O)NC(=O)[C@H](CC(=O)O)NC1=O` [Compound 462], the values for the pIC50 in test [2] and in test [1] were 7.38 and 7.17, respectively.
Regarding `CC(C)C[C@@H]1NC(=O)c2ccc(-c3ccc(N4CCN(C(=O)c5ccnc(-c6cc(C(=O)N7CCN(c8ccc(-c9ccc%10cc9CNC(=O)[C@@H]9CCCN9[C@H](C(=O)NC(C)(C)C)[C@H](C)NC(=O)[C@H]([C@@H](C)O)NC(=O)[C@H](CC(=O)O)NC(=O)[C@H](CC(C)C)NC%10=O)cc8)CC7)ccn6)c5)CC4)cc3)c(c2)CNC(=O)[C@@H]2CCCN2[C@H](C(=O)NC(C)(C)C)[C@H](C)NC(=O)[C@H]([C@@H](C)O)NC(=O)[C@H](CC(=O)O)NC1=O` [Compound 465], the pIC50 in test [1] is 6.88.
On to `CC(C)C[C@@H]1NC(=O)c2ccc(-c3ccc(N4CCN(C(=O)c5ccc6cc(C(=O)N7CCN(c8ccc(-c9ccc%10cc9CNC(=O)[C@@H]9CCCN9[C@H](C(=O)NC(C)(C)C)[C@H](C)NC(=O)[C@H]([C@@H](C)O)NC(=O)[C@H](CC(=O)O)NC(=O)[C@H](CC(C)C)NC%10=O)cc8)CC7)ccc6c5)CC4)cc3)c(c2)CNC(=O)[C@@H]2CCCN2[C@H](C(=O)NC(C)(C)C)[C@H](C)NC(=O)[C@H]([C@@H](C)O)NC(=O)[C@H](CC(=O)O)NC1=O` [Compound 471], for which the values for the pIC50 in test [2] and in test [1] were 7.54 and 7.34, respectively.
Turning to `CC(C)C[C@@H]1NC(=O)c2ccc(-c3ccc(N4CCN(C(=O)c5cc(C(=O)N6CCN(c7ccc(-c8ccc9cc8CNC(=O)[C@@H]8CCCN8[C@H](C(=O)NC(C)(C)C)[C@H](C)NC(=O)[C@H]([C@@H](C)O)NC(=O)[C@H](CC(=O)O)NC(=O)[C@H](CC(C)C)NC9=O)cc7)CC6)cc(C(F)(F)F)c5)CC4)cc3)c(c2)CNC(=O)[C@@H]2CCCN2[C@H](C(=O)NC(C)(C)C)[C@H](C)NC(=O)[C@H]([C@@H](C)O)NC(=O)[C@H](CC(=O)O)NC1=O` [Compound 477], the pIC50 in test [2] is 7.68; in test [1], 6.91.
Take `CC(C)C[C@@H]1NC(=O)c2ccc(-c3ccc(N4CCN(C(=O)C[C@H](N)C(=O)N5CCN(c6ccc(-c7ccc8cc7CNC(=O)[C@@H]7CCCN7[C@H](C(=O)NC(C)(C)C)[C@H](C)NC(=O)[C@H]([C@@H](C)O)NC(=O)[C@H](CC(=O)O)NC(=O)[C@H](CC(C)C)NC8=O)cc6)CC5)CC4)cc3)c(c2)CNC(=O)[C@@H]2CCCN2[C@H](C(=O)NC(C)(C)C)[C@H](C)NC(=O)[C@H]([C@@H](C)O)NC(=O)[C@H](CC(=O)O)NC1=O` [Compound 492]: the pIC50 in test [2] is 7.60; in test [1] it was 6.98.
On to `CC(C)C[C@@H]1NC(=O)c2ccc(-c3ccc(N4CCN(C(=O)c5cc6ccccc6c(Cc6c(O)c(C(=O)N7CCN(c8ccc(-c9ccc%10cc9CNC(=O)[C@@H]9CCCN9[C@H](C(=O)NC(C)(C)C)[C@H](C)NC(=O)[C@H]([C@@H](C)O)NC(=O)[C@H](CC(=O)O)NC(=O)[C@H](CC(C)C)NC%10=O)cc8)CC7)cc7ccccc67)c5O)CC4)cc3)c(c2)CNC(=O)[C@@H]2CCCN2[C@H](C(=O)NC(C)(C)C)[C@H](C)NC(=O)[C@H]([C@@H](C)O)NC(=O)[C@H](CC(=O)O)NC1=O` [Compound 502], for which the pIC50 in test [2] was 6.99; in test [3], 6.11. Further, in test [3] (ratio of cell adhesion IC50s, Ramos α4β1/VCAM over RPMI8866 α4β7/MAdCAM), the “Ratio Ramos/RPMI” value was determined as 8.
As to `CC(C)C[C@@H]1NC(=O)c2ccc(-c3ccc(N4CCN(C(=O)CCOCCOCCNC(=O)COCC(=O)NCCOCCOCCC(=O)N5CCN(c6ccc(-c7ccc8cc7CNC(=O)[C@@H]7CCCN7[C@H](C(=O)NC(C)(C)C)[C@H](C)NC(=O)[C@H]([C@@H](C)O)NC(=O)[C@H](CC(=O)O)NC(=O)[C@H](CC(C)C)NC8=O)cc6)CC5)CC4)cc3)c(c2)CNC(=O)[C@@H]2CCCN2[C@H](C(=O)NC(C)(C)C)[C@H](C)NC(=O)[C@H]([C@@H](C)O)NC(=O)[C@H](CC(=O)O)NC1=O` [Compound 506], in test [3], the pIC50 is 4.96.
